# According to patent US6884407B1, “Methods for diagnostic imaging involving the use of a contrast agent and a coronary vasodilator” (Bristol-Myers Squibb Pharma Company, priority 1996, dated 2005):
# Where two headings read alike, the source gives them in different places.
# Columns and labels:
# [1] = cited from earlier work
# [2] = Calculated diameter of emulsified droplet to form a 10 μm vesicle (ideal gas law); type: physicochemical; conditions: for Diameter (μm) of emulsified droplet to make 10 micron vesicle: Table 2
# Text: As noted above, compositions employed herein may also include, with respect to their preparation, formation and use, gaseous precursors that can be activated to change from a liquid or solid state into a gas by temperature, pH, light, and energy (such as ultrasound). The gaseous precursors may be made into gas by storing the precursors at reduced pressure. For example, a vial stored under reduced pressure may create a headspace of perfluoropentane or perfluorohexane gas, useful for creating a preformed gas prior to injection. Preferably, the gaseous precursors may be activated by temperature. Set forth below is a table listing a series of gaseous precursors which undergo phase transitions from liquid to gaseous states at relatively close to normal body temperature (37° C.) or below, and the size of the emulsified droplets that would be required to form a vesicle of a maximum size of 10 μm.
# The ideal gas law, which can be used for calculating the increase in the volume of the gas bubbles upon transitioning from liquid to gaseous states, is as follows: PV=nRT where
# Thus, for stabilization of the precursor in the liquid state in a mixture wherein the precursor droplet is spherical, the volume of the precursor droplet may be determined by the equation: Volume (spherical vesicle)=4/3 πr^3 where
# (B) where D is the density of the precursor. Solving for the diameter of the liquid droplet, diameter/2=[3/4π[4/3·[πrgas^3]P/RT]MWn/D]^1/3 (C) which reduces to Diameter=2[[rgas^3]P/RT[MWn/D]]^1/3.
# [3] = cited from earlier work; for Boiling Point: Table 2, CRC Handbook
# [4] = saturated diacyl-sn-glycero-3-phosphocholines, main chain melting transition; cited from earlier work
# myocardium = test: Ultrasound dose range studies of myocardium echo enhancement before and after coronary vasodilator; type: in vivo; conditions: 20 Kg pig, dipyridamole 0.56 mg/Kg IV over 4 minutes with gas filled vesicles of Example 1
# Experimental: This example includes a description of methods for imaging the cardiovascular region of a patient in accordance with methods within the scope of the present invention.
# A 20 Kg pig is anesthetized with isoflurane and a Swan Ganz catheter is inserted to monitor hemodynamics. Dose range studies are conducted using the gas filled vesicles prepared in Example 1 to determine the minimum dose required to enhance the myocardium echo, which is defined as greater than 10 videodensitometry units as determined by repeated videodensity measurements. After the dose range studies are performed, dipyridamole is administered intravenously at a dose of 0.56 mg/Kg over a period of 4 minutes. After a 5 minute latency period, dose range studies are repeated.
# [5] = Table 2, CRC Handbook, in g/mL (unit assumed)
Molecule,"Density [1, 5]",Diameter (μm) of emulsified droplet to make 10 micron vesicle [2] [μm],Boiling Point [3] [°C],Main Phase Transition Temperature [4] [°C],other results
CCCCF [1-fluorobutane],0.6779,1.2,32.5,–,"Density ([1]; at 20° C.): 0.7789 g/mL; diameter of emulsion droplets to make a gaseous precursor filled vesicle with an upper limit of 10 μm ([2]; equation (C), 37° C., 1 atmosphere): 0.0544 μm; liquid/gas phase transition temperature (boiling point) [3]: 32.5 °C"
"FC(F)(F)C(F)(F)C(F)(F)C(F)(F)C(F)(F)F [perfluoro pentane, perfluoropentane]",1.7326,2.9,29.5,–,liquid/gas phase transition temperature (boiling point) [3]: 29.5 °C
C#CC(=C)C [1-butene-3-yne-2-methyl],0.6801,2.4,34.0,–,–
FC(F)(F)C(F)(F)F [hexafluoro ethane],1.607,2.7,–,–,–
"CCCCCCCCCCCCCCCCCCCCCCC(=O)OCC(COP(=O)([O-])OCC[N+](C)(C)C)OC(=O)CCCCCCCCCCCCCCCCCCCCCC (stereo not shown) [1,2-(23:0)]",–,–,–,79.5,–
"CCCCCCCCCCCCC(=O)OC[C@H](COP(=O)([O-])OCC[N+](C)(C)C)OC(=O)CCCCCCCCCCCC [1,2-(13:0)]",–,–,–,13.7,–
"FC(F)(F)C(F)(F)C(F)(F)C(F)(F)F [decafluoro butane, perfluorobutane]",1.517,3.0,−2,–,liquid/gas phase transition temperature (boiling point) [3]: 4 °C
"CCCCCCCCCCCCCCCCC(=O)OC[C@H](COP(=O)([O-])OCC[N+](C)(C)C)OC(=O)CCCCCCCCCCCCCCCC [1,2-(17:0)]",–,–,–,48.2,–
"CCC(C)C [2-methyl butane (isopentane), 2-methyl butane]",0.6201,2.6,–,–,–
OCCN(CCO)c1nc(N2CCCCC2)c2nc(N(CCO)CCO)nc(N3CCCCC3)c2n1 [dipyridamole],–,–,–,–,diagnostic artifacts (myocardium): substantially eliminated; dosage of contrast agent required to obtain a medically useful diagnostic image of the cardiovascular region (myocardium; after vs before dipyridamole): significantly smaller dosage
CC=C(C)C [2-methyl-2-butene],0.6623,2.5,38.6,–,–
C#CC(C)C [3-methyl-1-butyne],0.6660,2.5,29.5,–,–
"CCCCCCCCCCCCCCCCCCCCCC(=O)OC[C@H](COP(=O)([O-])OCC[N+](C)(C)C)OC(=O)CCCCCCCCCCCCCCCCCCCCC [1,2-(22:0)]",–,–,–,74.0,–
"FC1(F)C(F)(F)C(F)(F)C1(F)F [octafluoro cyclobutane, octafluorocyclobutane]",1.48,2.8,−5.8,–,–
"CCCCCCCCCCCCCCCCCCCC(=O)OC[C@H](COP(=O)([O-])OCC[N+](C)(C)C)OC(=O)CCCCCCCCCCCCCCCCCCC [1,2-(20:0)]",–,–,–,64.5,–
"CCCCCCCCCCCCCCCCCC(=O)OC[C@H](COP(=O)([O-])OCC[N+](C)(C)C)OC(=O)CCCCCCCCCCCCCCCCC [1,2-(18:0)]",–,–,–,55.1,–
"CCCCCCCCCCCCCCCCCCCCCCCC(=O)OCC(COP(=O)([O-])OCC[N+](C)(C)C)OC(=O)CCCCCCCCCCCCCCCCCCCCCCC (stereo not shown) [1,2-(24:0)]",–,–,–,80.1,–
"CCCCCCCCCCCCCCCCCCC(=O)OC[C@H](COP(=O)([O-])OCC[N+](C)(C)C)OC(=O)CCCCCCCCCCCCCCCCCC [1,2-(19:0)]",–,–,–,61.8,–
2-methyl 1-butene,0.6504,2.5,31.2,–,–
FC(F)(F)C(F)(F)C(F)(F)C(F)(F)C(F)(F)C(F)(F)F [perfluorohexane],–,–,–,–,liquid/gas phase transition temperature (boiling point) [3]: 57 °C
"CCCCCCCCCCCCCCC(=O)OC[C@H](COP(=O)([O-])OCC[N+](C)(C)C)OC(=O)CCCCCCCCCCCCCC [1,2-(15:0)]",–,–,–,34.5,–
"CCCCCCCCCCCCCC(=O)OC[C@H](COP(=O)([O-])OCC[N+](C)(C)C)OC(=O)CCCCCCCCCCCCC [1,2-(14:0)]",–,–,–,23.5,–
"CCCCCCCCCCCCCCCCCCCCC(=O)OC[C@H](COP(=O)([O-])OCC[N+](C)(C)C)OC(=O)CCCCCCCCCCCCCCCCCCCC [1,2-(21:0)]",–,–,–,71.1,–
"CCCCCCCCCCCCCCCC(=O)OC[C@H](COP(=O)([O-])OCC[N+](C)(C)C)OC(=O)CCCCCCCCCCCCCCC [1,2-(16:0)]",–,–,–,41.4,–
"CCCCCCCCCCCC(=O)OC[C@H](COP(=O)([O-])OCC[N+](C)(C)C)OC(=O)CCCCCCCCCCC [1,2-(12:0)]",–,–,–,−1.0,–
